Data taken from patent US20250122182A1 (Isosterix, Inc., priority 2023, published 2025).

Biological target: Recombinant KAT6A/MOZ (488-778) protein (Homo sapiens (Human), UniProt Q92794)
Test: KAT6A AlphaLISA Inhibition Screening Assay
Assay type: biochemical
Conditions: for Average Kat6A % inhibition @ 1 μM / inhibition at 1 µM: 1 μM test compound; for Average Kat6A % inhibition @ 10 μM / inhibition at 10 µM: 10 μM test compound; for inhibition at 1 µM: read-out: Average Kat6A % inhibition @ 1 μM; for inhibition at 10 µM: read-out: Average Kat6A % inhibition @ 10 μM
Experimental: The Kat6a inhibitory activity of test compounds was determined using an Alpha Screen-based detection method. The assay reactions were conducted in a volume of 10 μL in Alpha Plate, White 384 well plate (cat #6008280, Perkin Elmer). The enzymatic reactions were performed in assay buffer pH 8.0 (50 mM Tris-HCl, 0.1 mM EDTA, 0.01% Tween-20, 1 mM Dithiothreitol, 0.1% BSA (fatty acid free) and 330 nM TSA (Trichostatin A)). 10 μL reaction volume consisting of 25 nM of Recombinant KAT6A/MOZ (488-778) protein (Active motif, Catalog #81223), 400 nM Acetyl coenzyme A (Catalog #A2056, Sigma), 200 nM of Histone H3 peptide [(amino acids 1-21), biotin-labeled (BPS Biosciences, Catalog #52011)]. Test compounds were screened at different doses starting with 10 μM, 3 fold dilution and 10 point Dose response curve. Enzyme and compounds solution were pre-incubated in assay plate for 60 or 10 min at room temperature then substrate and Acetyl coenzyme A solution were added to the plate. After addition, the plate was sealed with adhesive seals and incubated for 120 minutes at room temperature.
After 120 minutes of incubation, […] of AlphaLISA anti-acetyl-Lysine acceptor beads (Perkin Elmer, Catalog #AL143C) were added to the plate and it was incubated for 60 minutes at room temperature. Then […] of Alpha Streptavidin donor beads (Perkin Elmer, Catalog #6760002S) were added to the plate which was further incubated for 60 minutes at room temperature. After incubation, the alpha signal was recorded by using Perkin Elmer Envision multi-mode reader. Percent inhibition of enzyme activity by test compounds were determined relative to vehicle control.

Chain of Recombinant KAT6A/MOZ (488-778) protein (Q92794 488-778): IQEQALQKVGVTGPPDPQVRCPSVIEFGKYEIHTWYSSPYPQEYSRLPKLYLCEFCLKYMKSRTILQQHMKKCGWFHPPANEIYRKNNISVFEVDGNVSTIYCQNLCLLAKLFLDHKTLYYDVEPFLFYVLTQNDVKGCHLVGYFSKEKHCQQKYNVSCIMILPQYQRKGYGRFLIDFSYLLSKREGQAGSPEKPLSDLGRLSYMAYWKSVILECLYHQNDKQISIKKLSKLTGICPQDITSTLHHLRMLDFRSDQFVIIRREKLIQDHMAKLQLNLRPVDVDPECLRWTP

SMILES	Average Kat6A % inhibition @ 1 μM [%]	Average Kat6A % inhibition @ 10 μM [%]	inhibition at 1 µM [%]	inhibition at 10 µM [%]
COC(=O)NCc1cnn(Cc2cc3onc(NS(=O)(=O)c4cc5c(cc4OC)CCC5)c3cc2OC)c1 [Syn. Ex. 147, methyl ((1-((5-methoxy-3-((6-methoxy-2,3-dihydro-1H-indene)-5-sulfonamido)benzo[d]isoxazol-6-yl)methyl)-1H-pyrazol-4-yl)methyl)carbamate]	101	101		
CCc1ccc(OCc2nn[nH]n2)c(S(=O)(=O)Nc2noc3cc(Cn4cc(CNC(=O)OC)cn4)cc(OC)c23)c1 [Syn. Ex. 71, methyl ((1-((3-((2-((2H-tetrazol-5-yl)methoxy)-5-ethylphenyl)sulfonamido)-4-methoxybenzo[d]isoxazol-6-yl)methyl)-1H-pyrazol-4-yl)methyl)carbamate]			100	100
COc1ccccc1S(=O)(=O)Nc1noc2cc(Cn3cc(CNS(C)(=O)=O)cn3)cc(OC)c12 [Syn. Ex. 6, 2-methoxy-N-(4-methoxy-6-((4-(methylsulfonamidomethyl)-1H-pyrazol-1-yl)methyl)benzo[d]isoxazol-3-yl) benzenesulfonamide]	99	100		
C#CC(=O)N1Cc2cnn(Cc3cc(OC)c4c(NS(=O)(=O)c5cc(OC)ccc5OC)noc4c3)c2C1 [Syn. Ex. 4, 2,5-dimethoxy-N-(4-methoxy-6-((5-propioloyl-5,6-dihydropyrrolo[3,4-c]pyrazol-1(4H)-yl)methyl)benzo[d]isoxazol-3-yl)benzenesulfonamide]			100	100
CCc1ccc(OCC(=N)NO)c(S(=O)(=O)Nc2noc3cc(Cn4cc(CNC(=O)OC)cn4)cc(OC)c23)c1 [Syn. Ex. 115, methyl ((1-((3-((5-ethyl-2-(2-(hydroxyamino)-2-iminoethoxy)phenyl)sulfonamido)-4-methoxybenzo[d]isoxazol-6-yl)methyl)-1H-pyrazol-4-yl)methyl)carbamate]			100	100
CCc1ccc(OC)c(S(=O)(=O)Nc2noc3cc(Cn4cc(CNC(N)=O)cn4)cc(OC)c23)c1 [Syn. Ex. 90, 5-ethyl-2-methoxy-N-(4-methoxy-6-((4-(ureidomethyl)-1H-pyrazol-1-yl)methyl)benzo[d]isoxazol-3-yl)benzenesulfonamide]			99	100
C#CC(=O)N1Cc2cnn(Cc3cc(OC)c4c(NS(=O)(=O)c5ccc(C#N)cc5OC)noc4c3)c2C1 [Syn. Ex. 26, 4-cyano-2-methoxy-N-(4-methoxy-6-((5-propioloyl-5,6-dihydropyrrolo[3,4-c]pyrazol-1(4H)-yl)methyl)benzo[d]isoxazol-3-yl) benzenesulfonamide]	99	100		
CCc1ccc(OCC#N)c(S(=O)(=O)Nc2noc3cc(Cn4cc(CNC(=O)OC)cn4)cc(OC)c23)c1 [Syn. Ex. 44, methyl ((1-((3-((2-(cyanomethoxy)-5-ethylphenyl)sulfonamido)-4-methoxybenzo[d]isoxazol-6-yl)methyl)-1H-pyrazol-4-yl)methyl)carbamate]			97	100
CCc1ccc(S(=O)(=O)Nc2noc3cc(Cn4cc(CNC(=O)OC)cn4)c4c(c23)OCCC4)c(OC)c1 [Syn. Ex. 140, methyl ((1-((9-((4-ethyl-2-methoxyphenyl)sulfonamido)-3,4-dihydro-2H-chromeno[8,7-d]isoxazol-5-yl)methyl)-1H-pyrazol-4-yl)methyl)carbamate]			106	104
C=C(F)C(=O)NCc1cnn(Cc2cc(OC)c3c(NS(=O)(=O)c4ccccc4OCc4ccccc4)noc3c2)c1 [Syn. Ex. 36, N-((1-((3-((2-(benzyloxy)phenyl)sulfonamido)-4-methoxybenzo[d]isoxazol-6-yl)methyl)-1H-pyrazol-4-yl)methyl)-2-fluoroacrylamide]			93	97
